According to paper PMC6832705, “Menthol Increases Bendiocarb Efficacy Through Activation of Octopamine Receptors and Protein Kinase A” (Molecules, 2019):

Molecular target: T1, acetylcholinesterase (AChE)
T1 construct: gene ace1; native enzyme in collagenase-treated, dissociated terminal abdominal ganglia of males; not purified
Test: modified Ellman assay, absorbance […] nm
Assay type: biochemical, Periplaneta americana
Conditions: acetylthiocholine (0.1 mM stock), 15 min pre-incubation with bendiocarb, pH 7.2, 30 °C, no menthol; covalent; read-out: ED50 (the source's name)

CNC(=O)Oc1cccc2c1OC(C)(C)O2 [bendiocarb]
IC50: 100 nM
